Assays:
[1] = tested on: Mycobacterium tuberculosis; test: Kcat value was evaluated against type 2 Dehydroquinase of Mycobacterium tuberculosis
[2] = target: T1, 3-dehydroquinate dehydratase (Escherichia coli K-12) (UniProt P05194); test: Kcat value was evaluated against type 1 Dehydroquinase of Escherichia coli
T1 sequence (whole entry): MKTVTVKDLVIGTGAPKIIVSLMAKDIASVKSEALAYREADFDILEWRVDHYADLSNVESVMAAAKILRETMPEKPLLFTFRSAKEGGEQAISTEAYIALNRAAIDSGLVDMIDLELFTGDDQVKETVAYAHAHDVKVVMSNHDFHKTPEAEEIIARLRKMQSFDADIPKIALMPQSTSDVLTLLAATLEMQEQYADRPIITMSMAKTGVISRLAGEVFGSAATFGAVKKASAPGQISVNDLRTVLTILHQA

Aspergillus nidulans [3] = test: Kcat value was evaluated against type 2 Dehydroquinase of Aspergillus nidulans
[4] = tested on: Mycobacterium tuberculosis; test: The compound was evaluated for its kinetic parameter (Km) against type 2 Dehydroquinase of Mycobacterium tuberculosis
Aspergillus nidulans [5] = test: The compound was evaluated for its kinetic parameter (Km) against type 2 Dehydroquinase of Aspergillus nidulans
[6] = target: T1, 3-dehydroquinate dehydratase (Escherichia coli K-12); test: Kcat / Km value was evaluated against type 1 Dehydroquinase of Escherichia coli

SMILES | k cat [1] [s⁻¹] | k cat [2] [s⁻¹] | k cat (Aspergillus nidulans [3]) [s⁻¹] | Km [4] [µM] | Km (Aspergillus nidulans [5]) [µM] | k cat/Km [6] [M⁻¹ s⁻¹]
O=C1CC(O)(C(=O)O)C(F)C(O)C1O (stereo in doubt; 2) | 0.14 | 3 | 4.6 | 3.6 | 39 | 310000
O=C1CC(O)(C(=O)O)C(F)C(O)C1O (stereo in doubt; 3) | 1.1 | 36 | 46 | 7.9 | 50 | 310000
O=C1CC(O)(C(=O)O)CC(O)C1O (stereo unspecified) | 2.6 |  | 313 | 13 | 122 | 
